One assay concerns SW480. Put plainly: Cytotoxicity against human SW480 cells assessed as cell growth inhibition. It counts as functional, cell-based.
Another assay relates to HCT-116. Put plainly: Cytotoxicity against human HCT-116 cells assessed as cell growth inhibition. In kind it is functional, cell-based.
The subject of the next assay is MDA-MB-231. The assay is described as follows: Cytotoxicity against human MDA-MB-231 cells assessed as cell growth inhibition. In kind it is functional, cell-based.
Another assay concerns MDA-MB-468. The assay is described as follows: Cytotoxicity against human MDA-MB-468 cells assessed as cell growth inhibition. It counts as functional, cell-based.
For the next assay, the system named is BT-20. The assay is described as follows: Cytotoxicity against human BT-20 cells assessed as cell growth inhibition. In kind it is functional, cell-based.
A further assay relates to A549. Put plainly: Cytotoxicity against human A549 cells assessed as cell growth inhibition. It counts as functional, cell-based.
For a further assay, the system named is HeLa. The assay is described as follows: Antiproliferative activity against human HeLA cells by MTT assay. In kind it is functional, cell-based.
A further assay has as its system N2a. The assay is described as follows: Antiproliferative activity against mouse N2a cells by MTT assay. In kind it is functional, cell-based. A general note: Tetrazolium assays rely on reduction of a dye to a coloured formazan, in cell work by metabolically active cells.
Assay [1] concerns the target Catenin beta-1/Cadherin-1 (Homo sapiens, UniProt P12830+P35222). Put plainly: Binding affinity to beta-catenin/E-cadherin (unknown origin) assessed as inhibition constant. It counts as protein assay.
A short description of assay [2]: Binding affinity to beta-catenin/APC (unknown origin) assessed as inhibition constant. Also noted: species or system Homo sapiens.
A short description of assay [3]: Antitumor activity against human UM-SCC-5 cells assessed as cell growth inhibition. In kind it is functional, cell-based.
A short description of assay [4]: Antitumor activity against human UM-SCC-38 cells assessed as cell growth inhibition. In kind it is functional, cell-based.

Six molecules from ChEMBL document CHEMBL5120880, “Peptidomimetics: An Overview of Recent Medicinal Chemistry Efforts toward the Discovery of Novel Small Molecule Inhibitors” (J Med Chem, 2022) can be followed below.

Square brackets hold non-standard residues; d marks the D form. Peptide text beside a SMILES is read from it. * marks the point of attachment. Pro(cis-4-OPh) = O=C(O)[C@@H]1C[C@H](Oc2ccccc2)CN1; Bip = N[C@@H](Cc1ccc(-c2ccccc2)cc1)C(=O)O; X1 = CCCCCCCCCCCCCCCCCCS(=O)(=O)CCN*; Tle = CC(C)(C)[C@H](N)C(=O)O; X2 = CCCCCCCCCCCCCCCCCCSCCN*; NMeA = CN[C@@H](C)C(=O)O

Chain of Catenin beta-1/Cadherin-1 (P35222 whole entry): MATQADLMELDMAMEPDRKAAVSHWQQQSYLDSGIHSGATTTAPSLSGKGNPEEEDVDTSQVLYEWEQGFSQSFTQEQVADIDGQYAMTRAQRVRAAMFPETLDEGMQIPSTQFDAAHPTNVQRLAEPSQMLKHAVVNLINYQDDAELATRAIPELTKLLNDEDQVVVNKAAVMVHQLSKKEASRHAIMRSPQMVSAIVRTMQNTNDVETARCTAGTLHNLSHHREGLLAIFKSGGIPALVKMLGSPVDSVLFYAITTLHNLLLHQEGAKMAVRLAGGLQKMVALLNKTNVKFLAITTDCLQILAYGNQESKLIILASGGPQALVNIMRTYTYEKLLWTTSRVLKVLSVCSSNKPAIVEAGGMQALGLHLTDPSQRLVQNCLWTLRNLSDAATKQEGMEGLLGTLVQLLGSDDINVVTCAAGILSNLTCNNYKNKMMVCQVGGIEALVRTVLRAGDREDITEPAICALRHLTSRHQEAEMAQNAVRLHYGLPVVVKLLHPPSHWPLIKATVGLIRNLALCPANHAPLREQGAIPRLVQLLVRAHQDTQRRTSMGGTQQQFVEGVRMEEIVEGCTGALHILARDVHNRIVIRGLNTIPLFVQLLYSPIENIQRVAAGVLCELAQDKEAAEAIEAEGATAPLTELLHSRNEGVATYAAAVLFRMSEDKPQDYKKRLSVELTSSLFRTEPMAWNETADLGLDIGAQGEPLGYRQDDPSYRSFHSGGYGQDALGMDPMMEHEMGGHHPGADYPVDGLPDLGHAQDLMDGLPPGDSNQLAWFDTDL
Chain of Catenin beta-1/Cadherin-1 (P12830 whole entry): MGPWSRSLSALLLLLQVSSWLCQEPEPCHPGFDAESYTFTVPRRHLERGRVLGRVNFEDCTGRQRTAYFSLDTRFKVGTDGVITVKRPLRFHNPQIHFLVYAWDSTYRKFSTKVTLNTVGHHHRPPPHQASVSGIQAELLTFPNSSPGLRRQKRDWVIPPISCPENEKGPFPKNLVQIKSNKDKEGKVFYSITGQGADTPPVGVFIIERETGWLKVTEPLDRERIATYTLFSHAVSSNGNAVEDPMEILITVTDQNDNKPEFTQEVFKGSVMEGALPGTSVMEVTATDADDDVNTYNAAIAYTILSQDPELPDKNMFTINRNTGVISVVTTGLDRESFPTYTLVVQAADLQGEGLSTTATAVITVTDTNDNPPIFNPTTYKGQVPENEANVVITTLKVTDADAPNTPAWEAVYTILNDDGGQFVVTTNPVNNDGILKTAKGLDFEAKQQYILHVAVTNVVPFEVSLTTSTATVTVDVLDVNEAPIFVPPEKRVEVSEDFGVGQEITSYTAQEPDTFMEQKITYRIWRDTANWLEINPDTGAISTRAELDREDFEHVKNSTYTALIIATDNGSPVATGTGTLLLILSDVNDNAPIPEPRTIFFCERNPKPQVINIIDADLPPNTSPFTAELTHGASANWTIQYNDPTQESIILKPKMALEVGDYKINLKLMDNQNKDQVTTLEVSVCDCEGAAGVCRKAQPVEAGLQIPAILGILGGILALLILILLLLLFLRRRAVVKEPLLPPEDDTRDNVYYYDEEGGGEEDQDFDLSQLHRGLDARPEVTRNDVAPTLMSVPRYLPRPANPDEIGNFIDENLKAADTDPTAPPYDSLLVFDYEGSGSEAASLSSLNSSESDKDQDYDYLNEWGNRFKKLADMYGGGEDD

As for `CCOC(=O)CC[C@H](NC(=O)[C@H](Cc1nn[nH]n1)NC(=O)[C@H](Cc1ccc2ccccc2c1)NC(=O)c1cc2cc(Cl)ccc2[nH]1)C(=O)Nc1ccc(OC(F)(F)F)cc1`, the IC50 worked out at 14.1 µM with SW480; 69.4 µM in the assay with HCT-116; 12.3 µM in the assay with MDA-MB-231; 7.25 µM in the assay with MDA-MB-468; 16.5 µM in the assay with BT-20; 86.4 µM with A549.
Consider `NC(=O)CC[C@H](NC(=O)[C@H](Cc1nn[nH]n1)NC(=O)[C@H](Cc1ccc2ccccc2c1)NC(=O)c1cc2cc(Cl)ccc2[nH]1)C(=O)Nc1ccc(OC(F)(F)F)cc1`, for which the IC50 was 28.2 µM with SW480; 63.9 µM in the assay on HCT-116; 34.3 µM in the assay with MDA-MB-231; 29.2 µM with MDA-MB-468; 38.4 µM with BT-20; 60.3 µM in the assay on A549.
Turning to `O=C(Cc1ccccc1)NC1CC2CN(Cc3ccccc3)CC3C2CC=C(COC(=O)Cc2ccccc2)C13` (stereo not given), the results for the half-maximal effective concentration (EC50) in the assay with HeLa and in the assay on N2a were 10.3 µM and 2.1 µM, respectively.
On to `O=C(O)CC[C@H](NC(=O)[C@H](Cc1nnn[nH]1)NC(=O)[C@H](Cc1ccc2ccccc2c1)NC(=O)c1cc2c(Cl)cccc2[nH]1)C(=O)Nc1ccc(OC(F)(F)F)cc1`, for which the Ki came out at 13 µM in [1] and 173 µM in assay [2].
Consider `CCCCCCCCCCCCCCCCCCS(=O)(=O)CCNC(=O)[C@H](Cc1ccc(-c2ccccc2)cc1)NC(=O)[C@@H]1C[C@H](Oc2ccccc2)CN1C(=O)[C@@H](NC(=O)[C@H](C)NC)C(C)(C)C` (H-[NMeA][Tle][Pro(cis-4-OPh)][Bip]-X1), for which the EC50 is 0.73 µM in [3] and 0.14 µM in [4].
The corresponding values for `CCCCCCCCCCCCCCCCCCSCCNC(=O)[C@H](Cc1ccc(-c2ccccc2)cc1)NC(=O)[C@@H]1C[C@H](Oc2ccccc2)CN1C(=O)[C@@H](NC(=O)[C@H](C)NC)C(C)(C)C` (H-[NMeA][Tle][Pro(cis-4-OPh)][Bip]-X2) are 0.96 µM and 0.33 µM.

Usually IC50 stands for the concentration needed to halve the response being measured. As usually defined, the EC50 is the concentration that produces a half-maximal response. As usually defined, the Ki is the equilibrium dissociation constant of an inhibitor or competing ligand from its target.
